Earlier results, collected in patent US9555118B2, “Robust controlled-release peptide formulations” (CAMURUS AB, priority 2011, dated 2017).
*1 amine or outer side, *2 acyl side, *3 side chain or, on linkers, in order; H or OH if unused. Where a SMILES comes first, the peptide text is derived from it. Side-chain parts run from the residue outwards. [ ]: non-standard residue; d: D form. The star is where a group is joined. Ethylenediamine = C(CN[*:2])N[*:1]; Hyp = O=C(O)[C@@H]1C[C@@H](O)CN1; Phg = N[C@H](C(=O)O)c1ccccc1; CO = O=C([*:1])[*:2]; Bn = c1ccc(C*)cc1

What was measured:
[1] = tested on: somatostatin receptors (SSTR1-SSTR5)
[2] = single subcutaneous dose, human plasma

Q: With “Ala-Gly-Cys-Lys-Asn-Phe-Phe-Trp-Lys-Thr-Phe-Thr-Ser-Cys [SST-14]” as the compound, how does the Somatostatin receptor affinity [1] read?
A: equally high affinity

Q: What about the Biological half-life (natural SST-14) of the same compound?
A: 1-3 minutes

Q: Which Somatostatin receptor affinity [1] does the source give for `NCCCC[C@@H]1NC(=O)[C@@H](Cc2c[nH]c3ccccc23)NC(=O)[C@H](c2ccccc2)NC(=O)[C@@H]2C[C@@H](OC(=O)NCCN)CN2C(=O)[C@H](Cc2ccccc2)NC(=O)[C@H](Cc2ccc(OCc3ccccc3)cc2)NC1=O` [Pasireotide] (cyclo([Hyp]([CO-Ethylenediamine])[Phg][dW]KY(Bn)F)) here?
A: high affinity for somatostatin receptor subtypes sstr1,2,3 and sstr5

Q: What about the “Initial half-life following the peak” value [2] of the same compound?
A: 2 to 3 h

Q: For `C[C@@H](O)[C@@H]1NC(=O)[C@H](CCCCN)NC(=O)[C@@H](Cc2c[nH]c3ccccc23)NC(=O)[C@H](Cc2ccccc2)NC(=O)[C@@H](NC(=O)[C@H](N)Cc2ccccc2)CSSC[C@@H](C(=O)N[C@H](CO)[C@@H](C)O)NC1=O` [Octreotide, D-Phe-Cys-Phe-D-Trp-Lys-Thr-Cys-Thr-ol (2-7 disulphide bridge)], which Somatostatin receptor selectivity [1] is on record?
A: high selectivity for SSTR2 and SSTR5

Q: And the Terminal half-life (in vivo)?
A: around 1.7 hours
